From the supplement of paper PMC11616607

How the values were obtained:
Assay in all cases: drug sensitivity score (DSS) from 5-point dose-response viability curve (DSS (area-under-curve based score)); higher = more sensitive (stronger growth inhibition or killing); extreme values may be limits of the assay
Conditions in all cases: exposure time: 72 h; concentration range: 5 concentrations over 10,000-fold range
CAOV3 = system: CAOV3
Outline: (§1)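 Ovarian cancer and normal ovarian cell lines were tested in 384-well plates, with drugs dispensed acoustically (Echo 550) in DMSO or water at five concentrations covering a 10,000-fold range. After 1,500 cells per well were added, plates were incubated for 3 days at 37°C and 5% CO2, and viability was read by CellTiter-Glo luminescence on a PHERAstar FS. Breeze software gave a drug sensitivity score for each cell line and drug, where a higher score means greater sensitivity. A value of zero means no response.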

COV318 = system: COV318
Outline: as §1

COV362 = system: COV362
Outline: as §1

HOSE1C = system: HOSE1C
Outline: as §1

HOSE2C = system: HOSE2C
Outline: as §1

JHOS2 = system: JHOS2
Outline: as §1

Kuramochi = system: Kuramochi
Outline: as §1

OV90 = system: OV90
Outline: as §1

OVCAR4 = system: OVCAR4
Outline: as §1

OVCAR5 = system: OVCAR5
Outline: as §1

OVCAR8 = system: OVCAR8
Outline: as §1

Ovsaho = system: Ovsaho
Outline: as §1

Compound | drug sensitivity score (CAOV3) | drug sensitivity score (COV318) | drug sensitivity score (COV362) | drug sensitivity score (HOSE1C) | drug sensitivity score (HOSE2C) | drug sensitivity score (JHOS2) | drug sensitivity score (Kuramochi) | drug sensitivity score (OV90) | drug sensitivity score (OVCAR4) | drug sensitivity score (OVCAR5) | drug sensitivity score (OVCAR8) | drug sensitivity score (Ovsaho)
CC(C)C(=O)Nc1ccc([N+](=O)[O-])c(C(F)(F)F)c1 [Flutamide] | 0 | 0.2 | 0 | 0.2 | 0 | 0.3 | 0.7 | 0 | 0.5 | 0.1 | 0.3 | 0
CC1(COc2ccc3c(c2)ncn3-c2ccc3cccc(N4CCC(N)CC4)c3n2)COC1 [Crenolanib] | 10 | 5.4 | 6.8 | 4.8 | 2.8 | 7.9 | 4 | 6 | 2.9 | 4.9 | 6.9 | 4.4
COCCNCc1ccc(-c2cc3nccc(Oc4ccc(NC(=S)NC(=O)Cc5ccc(F)cc5)cc4F)c3s2)nc1 [Glesatinib] | 0 | 0.1 | 1.6 | 2.9 | 1.9 | 0 | 0 | 0 | 0 | 1.2 | 0 | 0.2
COc1cccc2c1C(=O)c1c(O)c3c(c(O)c1C2=O)C[C@@](O)(C(C)=O)C[C@@H]3O[C@H]1C[C@H](N)[C@H](O)[C@H](C)O1 [Daunorubicin] | 9.4 | 1.7 | 3.6 | 11.5 | 10.9 | 6.2 | 4.2 | 5.3 | 3.2 | 8.2 | 10.8 | 7.9
CN(C)CCCOc1ccc(-c2ccc3ncc4c(c3c2)n(C2CCOCC2)c(=O)n4C)cn1 [AZD0156] | 1.2 | 0 | 0 | 1 | 0 | 0 | 0.2 | 1.1 | 0 | 1.4 | 0 | 3.2
CN1CC[C@@H](NC(=O)Nc2ccc(C#N)cc2)C[C@@H]1c1nc2ccccc2[nH]1 [Glasdegib] | 0 | 0 | 0 | 0 | 0 | 0 | 0 | 0 | 0 | 0 | 0 | 0
C=CC(=O)N1CC/C(=C\c2ccc(F)c([N+](=O)[O-])c2)C(=O)/C(=C/c2ccc(F)c([N+](=O)[O-])c2)C1 [VLX1570] | 18.7 | 12.2 | 9.4 | 23.3 | 21.4 | 17.5 | 18 | 16.8 | 18.7 | 17.1 | 26.8 | 25
CC(C)N(C[C@H]1O[C@@H](n2cnc3c(N)ncnc32)[C@H](O)[C@@H]1O)[C@H]1C[C@@H](CCc2nc3cc(C(C)(C)C)ccc3[nH]2)C1 [Pinometostat] | 0 | 0 | 0 | 0 | 0 | 0 | 0 | 0 | 0 | 0 | 0 | 0
C[C@@H]1COC(Nc2ccc3ncnc(Nc4ccc(OCc5nccs5)c(Cl)c4)c3c2)=N1 [Varlitinib] | 3.2 | 0 | 0 | 0.4 | 0.2 | 0 | 0.4 | 0 | 1.9 | 4.1 | 5.4 | 0.3
Cn1c(=O)n(-c2ccc(C(C)(C)C#N)cc2)c2c3cc(-c4cnc5ccccc5c4)ccc3ncc21 [Dactolisib] | 11 | 13.4 | 3.7 | 20.5 | 13.9 | 13.7 | 14.4 | 16.7 | 15.3 | 15 | 14.4 | 15.8
COc1cc(Nc2ncc3c(n2)-c2ccc(Cl)cc2C(c2c(F)cccc2OC)=NC3)ccc1C(=O)O [Alisertib] | 22.5 | 1.9 | 0 | 8.9 | 5.4 | 0.4 | 3.7 | 5.4 | 4.9 | 6.9 | 9.4 | 3.1
Nc1cc(F)ccc1NC(=O)c1ccc(CNC(=O)/C=C/c2cccnc2)cc1 [Tucidinostat] | 4.3 | 3.9 | 0 | 14.7 | 10.8 | 3.5 | 2.1 | 7.2 | 1.7 | 7 | 8 | 3
CC/C(=C(\c1ccc(O)cc1)c1ccc(OCCN(C)C)cc1)c1ccccc1 [4-hydroxytamoxifen] | 0.2 | 5.5 | 2 | 2.7 | 3 | 2.8 | 4.2 | 6 | 2.1 | 5.9 | 2.6 | 3.9
COc1cc(C(=O)O)ccc1NC(=O)[C@@H]1N[C@@H](CC(C)(C)C)[C@](C#N)(c2ccc(Cl)cc2F)[C@H]1c1cccc(Cl)c1F [Idasanutlin] | 0 | 0 | 0 | 16 | 10.5 | 0 | 0 | 0 | 1.2 | 0.7 | 3.3 | 0
CN[C@@H]1C[C@H]2O[C@@](C)([C@@H]1OC)n1c3ccccc3c3c4c(c5c6ccccc6n2c5c31)C(=O)N[C@H]4O [UCN-01] | 19.3 | 18.7 | 17.8 | 27.8 | 29.7 | 15.3 | 14.6 | 22.8 | 13.8 | 18.1 | 18.8 | 23.8
NC(=O)Nc1cc(-c2cccc(F)c2)sc1C(=O)N[C@H]1CCCNC1 [AZD7762] | 6.1 | 5 | 7 | 7.4 | 7.8 | 1.9 | 4.2 | 6.4 | 7 | 6.6 | 5.2 | 4
CC(C)[C@H]1C(=O)N[C@@H](CCCNC(=N)N)C(=O)NCC(=O)N[C@@H](CC(=O)O)C(=O)N[C@H](Cc2ccccc2)C(=O)N1C [Cilengitide] | 0 | 0 | 5.6 | 0 | 3.5 | 1.6 | 5.4 | 2.5 | 2.9 | 1.1 | 0.2 | 17.7
NS(=O)(=O)NCCNc1nonc1/C(=N/O)Nc1ccc(F)c(Br)c1 [Epacadostat] | 0 | 1 | 0 | 0 | 0 | 0.9 | 0 | 0.4 | 0 | 0.3 | 0 | 0.1
C[C@H]1O[C@@H](O[C@H]2[C@@H](O)C[C@H](O[C@H]3[C@@H](O)C[C@H](O[C@H]4CC[C@@]5(C)[C@H](CC[C@@H]6[C@@H]5C[C@@H](O)[C@]5(C)[C@@H](C7=CC(=O)OC7)CC[C@]65O)C4)O[C@@H]3C)O[C@@H]2C)C[C@H](O)[C@@H]1O [Digoxin] | 6.2 | 11.9 | 10.8 | 11.1 | 9.5 | 10.9 | 8.5 | 7.2 | 9.6 | 7.5 | 11.2 | 7.1
Cc1sc2c(c1C)C(c1ccc(Cl)cc1)=N[C@@H](CC(=O)Nc1ccc(O)cc1)c1nnc(C)n1-2 [Birabresib] | 13.1 | 1.7 | 2.3 | 15.1 | 13.4 | 5.4 | 12.5 | 10.2 | 8.1 | 10.8 | 12.6 | 12.9
Cn1ncnc1[C@H]1c2n[nH]c(=O)c3cc(F)cc(c23)N[C@@H]1c1ccc(F)cc1 [Talazoparib] | 4.1 | 3.1 | 0 | 10.1 | 8.7 | 3 | 4.3 | 5.1 | 1.9 | 3.2 | 5.7 | 4
CC1(C)CC[C@]2(NC(=O)C(C)(F)F)CC[C@]3(C)[C@H](C(=O)C=C4[C@@]5(C)C=C(C#N)C(=O)C(C)(C)[C@@H]5CC[C@]43C)[C@@H]2C1 [Omaveloxolone] | 17.4 | 10.5 | 9.2 | 16.5 | 16.3 | 13.3 | 14.3 | 18.8 | 18.6 | 13.7 | 18.9 | 19.6
C/C=C1\NC(=O)[C@H]2CSSCC/C=C/[C@H](CC(=O)N[C@H](C(C)C)C(=O)N2)OC(=O)[C@H](C(C)C)NC1=O [Romidepsin] | 28.2 | 12.3 | 11.9 | 39.3 | 35.8 | 22.7 | 27.8 | 29.8 | 20.8 | 33.3 | 28.1 | 25.9
C[C@]1(O)C[C@@H](c2nc(-c3ccc4ccc(-c5ccccc5)nc4c3)c3c(N)nccn32)C1 [Linsitinib] | 1.4 | 0 | 0 | 0.7 | 2 | 0 | 0 | 0.9 | 0 | 2.7 | 0.3 | 0
CC(=O)c1cnc2ccc(-c3cc(Cl)c(O)c(Cl)c3)nc2c1N[C@H]1CC[C@H](CN(C)C)CC1 [OTS167] | 13.2 | 15.1 | 5.4 | 19.8 | 12.4 | 13.4 | 10.6 | 7.5 | 7.5 | 11.8 | 13.6 | 9.1
COc1cc2c(NC3CCN(C(C)C)CC3)nc(C3CCCCC3)nc2cc1OCCCN1CCCC1 [UNC0638] | 0.1 | 0.6 | 4.1 | 0 | 0 | 0 | 0.8 | 5.4 | 0.9 | 3.4 | 3.6 | 0.3
CCCC(CCC)C(=O)O [Valproic acid] | 0 | 0 | 0 | 0 | 0 | 0 | 0 | 0 | 0 | 0 | 0 | 0
COc1cc2c(cc1OC(C)C)[C@H](c1ccc(Cl)cc1)N(c1ccc(N(C)C[C@H]3CC[C@H](N4CCN(C)C(=O)C4)CC3)cc1)C(=O)C2 [NVP-CGM097] | 3.3 | 5.9 | 4.6 | 11.4 | 16.5 | 6.4 | 5.5 | 5.4 | 5 | 7.2 | 5.7 | 5.8
CN1CCN(c2ccc3nc(-c4c(N)c5c(F)cccc5[nH]c4=O)[nH]c3c2)CC1 [Dovitinib] | 0 | 0 | 0 | 0 | 0 | 0 | 0 | 0 | 0.6 | 0 | 0 | 0
